Consider two compounds from paper PMC9572521, “Synthesis, Docking Studies and Pharmacological Evaluation of Serotoninergic Ligands Containing a 5-Norbornene-2-Carboxamide Nucleus” (Molecules, 2022).

One data set has as its target T1, 5-HT1A receptor (Rattus norvegicus, UniProt P19327).
T1 construct: 15 μg/mL of hippocampus homogenate was incubated in triplicate with 0.8 nM; from tissue; host or cells: rat hippocampus homogenate
T1 sequence (P19327 1-422): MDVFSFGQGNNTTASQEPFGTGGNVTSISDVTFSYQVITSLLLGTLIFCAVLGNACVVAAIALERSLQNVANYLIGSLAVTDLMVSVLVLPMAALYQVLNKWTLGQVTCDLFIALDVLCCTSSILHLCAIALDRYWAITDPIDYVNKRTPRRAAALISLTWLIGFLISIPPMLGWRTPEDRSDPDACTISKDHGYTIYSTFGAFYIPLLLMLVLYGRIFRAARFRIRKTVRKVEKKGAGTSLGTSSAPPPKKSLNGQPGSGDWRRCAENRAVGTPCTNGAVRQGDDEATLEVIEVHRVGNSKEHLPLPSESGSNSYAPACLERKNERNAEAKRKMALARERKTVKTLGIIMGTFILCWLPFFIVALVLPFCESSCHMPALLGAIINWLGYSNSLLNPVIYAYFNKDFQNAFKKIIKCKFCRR
The data set is described as follows: Functional 5-HT1A receptor [35S]GTPγS assay (agonist mode).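 Further: male Sprague-Dawley rat hippocampal membranes incubated 90 min at 37 °C, bound label counted by scintillation after filtration, non-specific binding defined with 100 µM unlabeled GTPγS, one-site curve fit.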 As to conditions: [35S]GTPγS, rat hippocampus homogenate. Format: biochemical. A general note: GTPγS is a poorly hydrolysed GTP analogue; its binding reports G protein activation.

A further data set has as its target T2, D2 receptor (Rattus norvegicus, UniProt P61169).
T2 construct: 15μg/mL of striatal homogenate was incubated in triplicate; from tissue; host or cells: rat striatum homogenate
Put plainly: Functional D2 receptor [35S]GTPγS assay (antagonist mode vs dopamine; basal for agonism).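 Further: [35S]GTPγS binding counted by scintillation after 60 min at 30 °C, nonspecific binding defined with 100 µM unlabeled GTPγS, inhibition curves fitted by one-site nonlinear regression.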 It is filed as biochemical. As to conditions: against 40 µM dopamine, rat striatal homogenate; read-out: D2 receptor antagonistic activity IC50 (95% CI).

For a further data set, the target named is 5-HT2A receptor (Rattus norvegicus, UniProt P14842). The data set is described as follows: 5-HT2A competition binding assay ([3H]ketanserin, frontal cortex homogenates).
Chain of 5-HT2A receptor (P14842 whole entry): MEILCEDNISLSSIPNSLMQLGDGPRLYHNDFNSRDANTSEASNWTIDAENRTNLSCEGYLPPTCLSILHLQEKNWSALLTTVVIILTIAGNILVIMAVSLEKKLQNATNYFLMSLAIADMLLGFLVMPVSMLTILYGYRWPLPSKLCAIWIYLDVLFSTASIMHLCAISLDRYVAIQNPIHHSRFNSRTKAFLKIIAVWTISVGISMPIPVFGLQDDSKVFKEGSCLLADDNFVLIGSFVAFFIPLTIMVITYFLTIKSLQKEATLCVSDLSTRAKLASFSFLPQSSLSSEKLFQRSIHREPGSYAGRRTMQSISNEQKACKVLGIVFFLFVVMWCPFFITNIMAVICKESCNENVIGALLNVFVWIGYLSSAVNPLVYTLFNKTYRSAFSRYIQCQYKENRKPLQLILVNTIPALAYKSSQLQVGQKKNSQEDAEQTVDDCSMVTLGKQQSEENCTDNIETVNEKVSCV
Another data set concerns the target T3, human 5-HT2C receptor (Homo sapiens, UniProt P28335).
T3 sequence (P28335 33-458): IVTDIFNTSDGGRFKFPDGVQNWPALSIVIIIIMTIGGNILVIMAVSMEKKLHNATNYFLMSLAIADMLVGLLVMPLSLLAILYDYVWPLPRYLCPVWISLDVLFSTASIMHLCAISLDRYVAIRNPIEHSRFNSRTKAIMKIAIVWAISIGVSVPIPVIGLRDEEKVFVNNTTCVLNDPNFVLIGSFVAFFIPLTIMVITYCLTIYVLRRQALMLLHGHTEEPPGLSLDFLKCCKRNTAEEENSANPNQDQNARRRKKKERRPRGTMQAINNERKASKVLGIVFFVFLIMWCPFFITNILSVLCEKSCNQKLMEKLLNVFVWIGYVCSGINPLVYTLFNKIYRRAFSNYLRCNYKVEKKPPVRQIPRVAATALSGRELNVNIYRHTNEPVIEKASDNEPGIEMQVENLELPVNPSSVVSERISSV
Put plainly: 5-HT2C competition binding assay ([3H]mesulergine, transfected cell membranes). As to conditions: [3H]mesulergine, human 5-HT2C membranes; read-out: 5-HT2C Ki (95% CI).

For data set [1], the system named is 5-HT2A receptors (5-HT-induced contractions in the rat ileum). Put plainly: 5-HT-evoked contractions of isolated rat ileum. As to conditions: 5-HT 10^−5 M; compounds 10^−8–10^−5 M.
Data set [2] deals with mice. The data set is described as follows: Chimney test (motor coordination). It is filed as in vivo, mouse. The note with it: 30 mg/kg i.p., 60 min before the test. As for the experimental part:
(§1) The experiments were carried out, in the Experimental Medicine Center of Medical University of Lublin, on six-week-old naive male Swiss mice, weighing 24–30 g. The mice were housed in cages, five individuals per cage in an environmentally controlled rooms (ambient temperature 22 ± 1 °C; relative humidity 50–60%; 12 h light/dark cycle, lights on at 8:00). Standard laboratory food(LSM-Agropol-Motycz, Lublin, Poland) and filtered water were available ad libitum. All the experimental procedures were carried out, according to the National Institute of Health Guidelines for the Care and Use of Laboratory Animals and to the European Community Council Directive for the Care and Use of Laboratory Animals of 22 September 2010 (2010/63/EU) and approved by the Local Ethics Committee for Animal Experimentation in Lublin. The investigated compounds (Norbo-4, Norbo-8, Norbo-10, Norbo-14, Norbo-18 and Norbo-20) in all tests were administered intraperitoneally (i.p.), dissolved in dimethyl sulfoxide (DMSO, final concentration of 0.1%) and then diluted by aqueous solution of 0.5% methylcellulose (tylose) and injected 60 min before the tests. […] All compounds were given in a volume of 10 mL/kg to mice. The control animals received an equivalent volume of the solvent at the respective time before the tests. All the experiments were conducted in the light phase between 09.00 a.m. and 14.00 p.m. The experiments were performed by an observer unaware of the treatment administered. The effects of investigated compounds on motor coordination were evaluated in the rota-rod and chimney tests. In the first test, motor impairments were measured, defined as the inability to keep balance on a rotating rod (at constant speed of 18 rpm) for 1 min. In the second test, motor impairments were assessed by mouse inability to climb up the tube backwards (3 cm in inner diameter, 25 cm long) within 60 s. Before the tests, the animals were trained once a day for 3 days. The animals able to stay on the rotating rod or to leave the chimney for 60 s were approved for experiments.

Data set [3] deals with mice. Put plainly: Rota-rod test (motor coordination). Format: in vivo, mouse. As to conditions: 30 mg/kg i.p., 60 min before the test. As for the experimental part: as §1
A general note: The rotarod test checks motor coordination on a turning rod.

Data set [4] relates to mice. The data set is described as follows: Spontaneous locomotor activity. It is filed as in vivo, mouse.
Data set [5] has as its system mice. The data set is described as follows: Forced swim test (FST, Porsolt's test). It is filed as in vivo, mouse. The note with it: 15 mg/kg i.p., 60 min before the test. As for the experimental part:
as §1, with “The experiment was carried out according to the method” for “The effects”, “of Porsolt et al.. Mice were individually placed in a glass cylinder (25 cm high; 10 cm in diameter) containing water maintained at 23–25 °C, and were left there for 6 min. The total duration of immobility was recorded during the last 4 min of a 6-min test session. A mouse was regarded as immobile when it remained floating” for “of investigated compounds”, “on” for “on motor coordination were evaluated in”, “the water, making only small movements” for “the rota-rod and chimney tests. In the first test, motor impairments were measured, defined as the inability”, “keep its head above” for “keep balance on a rotating rod (at constant speed of 18 rpm) for 1 min. In”, “the water.” for “the second test, motor impairments were assessed by mouse inability to climb up the tube backwards (3 cm in inner diameter, 25 cm long) within 60 s. Before the tests, the animals were trained once a day for 3 days. The animals able to stay on the rotating rod or to leave the chimney for 60 s were approved for experiments.”

Where [6] appears, read: 30 mg/kg i.p., after 6 min of observation.
Where [7] appears, read: 30 mg/kg i.p., after 20 min of observation.

Entries after “also recorded” stand apart in the source; their conditions may differ. Like-named read-outs stand apart in the source and are kept apart here.

T2 sequence (P61169 whole entry): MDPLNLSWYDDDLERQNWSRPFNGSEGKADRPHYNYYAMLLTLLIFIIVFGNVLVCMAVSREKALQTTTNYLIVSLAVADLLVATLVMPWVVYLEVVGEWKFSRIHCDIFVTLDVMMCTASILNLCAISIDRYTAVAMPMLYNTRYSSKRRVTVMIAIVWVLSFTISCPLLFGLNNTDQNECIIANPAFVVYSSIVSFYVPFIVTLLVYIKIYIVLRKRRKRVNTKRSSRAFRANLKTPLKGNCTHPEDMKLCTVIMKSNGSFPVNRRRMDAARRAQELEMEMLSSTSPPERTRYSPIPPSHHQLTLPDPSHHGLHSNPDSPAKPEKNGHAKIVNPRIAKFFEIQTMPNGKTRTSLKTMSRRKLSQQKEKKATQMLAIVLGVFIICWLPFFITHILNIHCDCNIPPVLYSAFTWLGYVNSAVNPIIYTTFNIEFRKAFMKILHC

As to `O=C(NCCCN1CCN(c2ccc(Cl)c(Cl)c2)CC1)C1CC2C=CC1C2` (stereo not drawn) [Norbo-14, endo-N-(3-(4-(3,4-dichlorophenyl)piperazin-1-yl)propyl)bicyclo[2.2.1]hept-5-ene-2-carboxamide], the “5-HT1A Receptor G-Protein Stimulation pEC50” value on 5-HT1A receptor (± SEM) is on record as “no activity”. Also, on D2 receptor, the IC50 (in general, the concentration that gives 50% inhibition) was determined as 41100 nM. Besides, the Ki on 5-HT2A receptor (read-out: 5-HT2A Ki (95% CI)) stood at 17.9 nM; at human 5-HT2C receptor it was 3640 nM. The “Emax, maximal inhibitory effect on 5-HT-induced contractions in the rat ileum” value in data set [1] came out at 22.57%. Also, the time in chimney result with mice [2] is “significant increase of time in chimney; also recorded: disturbed the behavior of mice”. Besides, the time on rota-rod result in the data set on mice [3] is “decreased also time on rota-rod; also recorded: impaired motor coordination”. Further, the spontaneous locomotor activity result in the data set with mice [4] (15 mg/kg i.p., after 20 min of observation) is on record as “significant decrease in locomotor activity”; in the data set with mice [4] (setting [6]), “significant decrease in locomotor activity”; in the data set on mice [4] (setting [7]), “significant decrease in locomotor activity”.

As for `O=C(NCCCN1CCN(c2ccc(F)cc2)CC1)C1CC2C=CC1C2` (stereo not drawn) [Norbo-18, endo.-N-(3-(4-(4-fluorophenyl)piperazin-1-yl)propyl)bicyclo[2.2.1]hept-5-ene-2-carboxamide], the “5-HT1A Receptor G-Protein Stimulation Emax (%) ± SEM” value at 5-HT1A receptor is 143 ± 5.1 ^&&& %. The concentration giving a half-maximal response (EC50) (usually the concentration at which the effect is half-maximal) on 5-HT1A receptor (read-out: 5-HT1A Receptor G-Protein Stimulation EC50 (95% CI)) was 2320 nM. Also, the IC50 on D2 receptor turned out to be 82900 nM. The Ki on 5-HT2A receptor (± SEM, read-out: 5-HT2A pKi (converted)) was 18.6 nM; on human 5-HT2C receptor it was 212 nM. Moreover, the “Emax, maximal inhibitory effect on 5-HT-induced contractions in the rat ileum” value in [1] is 25.28%. For the same compound, the time in chimney entry with mice [2] is given as “significant increase of time in chimney; also recorded: disturbed the behavior of mice”. Further, the time on rota-rod result in the data set on mice [3] is “decreased also time on rota-rod; also recorded: impaired motor coordination”. The spontaneous locomotor activity entry in the data set with mice [4] (setting [6]) and with mice [4] (setting [7]) was “significant decrease in locomotor activity” in each case. Also, the “immobility time in FST” value in the data set on mice [5] is “significant reduction in immobility time; also recorded: significant reduction of immobility time”.
